Tests used:
[1] = biological target: T1, rat GPR14 (U-II receptor) (Rattus norvegicus, UniProt P49684); experiment: Rat UII Calcium Mobilization FLIPR Assay; format: cell-based; settings: CHO cells transfected with rat GPR14; antagonist activity after 5 min incubation vs agonist (Ac)-CFWK(2-NaI)C-NH2 at 1 nM
T1 construct: expressed in transfected cells
T1 sequence (P49684 1-386): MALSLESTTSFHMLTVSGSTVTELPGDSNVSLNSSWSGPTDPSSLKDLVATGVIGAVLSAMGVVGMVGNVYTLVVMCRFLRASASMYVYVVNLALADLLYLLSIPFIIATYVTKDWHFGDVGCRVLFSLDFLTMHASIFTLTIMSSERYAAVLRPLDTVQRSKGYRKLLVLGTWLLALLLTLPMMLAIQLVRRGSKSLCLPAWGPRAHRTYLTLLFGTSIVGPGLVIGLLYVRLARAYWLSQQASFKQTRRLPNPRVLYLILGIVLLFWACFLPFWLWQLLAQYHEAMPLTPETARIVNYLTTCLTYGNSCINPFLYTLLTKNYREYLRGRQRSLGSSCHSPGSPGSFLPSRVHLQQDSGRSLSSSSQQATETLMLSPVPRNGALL
Summary of the method: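 CHO cells stably expressing rat U-II receptor, seeded 24 h before assay, were loaded with FLIPR calcium dye in HBSS/20 mM HEPES/0.1% BSA/2.5 mM probenecid, pH 7.4, for 1 h at 37° C. Calcium mobilization then read by FLIPR at 23° C.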

[2] = biological target: T2, Human UII (U-II receptor) in 6D9 human rhabdomyosarcoma cells (Homo sapiens, UniProt Q9UKP6); experiment: Human UII Calcium Mobilization Assay; format: cell-based; settings: 6D9 human rhabdomyosarcoma cells, FLIPR TETRA, average; read-out: Human UII Ca+ Mobilization Average IC50
T2 construct: 6D9: isolated by dilution subcloning of RMS13 cells, ATCC® Number: CRL-2061; host or cells: 6D9 human rhabdomyosarcoma cells (subclone of RMS13)
T2 sequence (Q9UKP6 1-389): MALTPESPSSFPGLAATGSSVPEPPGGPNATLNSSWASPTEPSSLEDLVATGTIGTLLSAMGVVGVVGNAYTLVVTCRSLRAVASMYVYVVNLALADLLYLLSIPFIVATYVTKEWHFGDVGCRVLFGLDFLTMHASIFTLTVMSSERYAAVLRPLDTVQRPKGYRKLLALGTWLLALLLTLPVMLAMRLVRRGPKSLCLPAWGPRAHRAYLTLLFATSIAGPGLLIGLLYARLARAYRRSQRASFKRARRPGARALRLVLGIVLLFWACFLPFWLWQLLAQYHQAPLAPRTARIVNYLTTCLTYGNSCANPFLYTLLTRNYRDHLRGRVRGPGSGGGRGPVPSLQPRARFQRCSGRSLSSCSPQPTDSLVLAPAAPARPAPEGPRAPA

[3] = biological target: T3, UT receptors in HSMM (Human Skeletal Muscle Myoblasts) (Homo sapiens, UniProt Q9UKP6); experiment: Human Radioligand Binding Assay ((^125I)-U-II binding to intact HSMM)
T3 sequence (Q9UKP6 1-389): T2 sequence (Q9UKP6 1-389)

[4] = biological target: T1, rat GPR14 (U-II receptor); settings: agonist activity of the cyclic peptide used as agonist; read-out: FLIPR EC50; cited from earlier work
rU-II = biological target: T4, rU-II (Rattus norvegicus, UniProt P49684); settings: cited from earlier work
T4 sequence (P49684 1-386): T1 sequence (P49684 1-386)

Molecule	IC50 [1] [nM]	IC50 [2] [nM]	Ki [3] [nM]	EC50 [4] [nM]	Ki (rU-II) [nM]
CCN1CCN(c2cccc3c2CN([C@H](CCCN(C)Cc2cccs2)c2ccc(OC)c(OC)c2)C3=O)CC1 [Cpd 95, 2-[(1R)-1-(3,4-dimethoxy-phenyl)-4-(methyl-thiophen-2-ylmethyl-amino)-butyl]-4-(4-ethyl-piperazin-1-yl)-2,3-dihydro-isoindol-1-one]	5	92	23	–	–
CCN1CCN(c2cccc3c2CN([C@H](CCCN(Cc2ccccc2)C(C)C)c2ccc(OC)c(OC)c2)C3=O)CC1 [Cpd 96, 2-[(1R)-4-(benzyl-isopropyl-amino)-1-(3,4-dimethoxy-phenyl)-butyl]-4-(4-ethyl-piperazin-1-yl)-2,3-dihydro-isoindol-1-one]	15	152	69	–	–
CCN1CCN(c2cccc3c2CN([C@H](CCCN(C)Cc2ccccc2F)c2ccc(OC)c(OC)c2)C3=O)CC1 [Cpd 97, 2-{(1R)-1-(3,4-dimethoxy-phenyl)-4-[(2-fluoro-benzyl)-methyl-amino]-butyl}-4-(4-ethyl-piperazin-1-yl)-2,3-dihydro-isoindol-1-one]	4	56	26	–	–
CCN1CCN(c2cccc3c2CN([C@H](CCCN(C)Cc2cccc(F)c2)c2ccc(OC)c(OC)c2)C3=O)CC1 [Cpd 98, 2-{(1R)-1-(3,4-dimethoxy-phenyl)-4-[(3-fluoro-benzyl)-methyl-amino]-butyl}-4-(4-ethyl-piperazin-1-yl)-2,3-dihydro-isoindol-1-one]	4	105	59	–	–
CCN1CCN(c2cccc3c2CN([C@H](CCCN(C)Cc2ccc(F)cc2)c2ccc(OC)c(OC)c2)C3=O)CC1 [Cpd 99, 2-{(1R)-1-(3,4-dimethoxy-phenyl)-4-[(4-fluoro-benzyl)-methyl-amino]-butyl}-4-(4-ethyl-piperazin-1-yl)-2,3-dihydro-isoindol-1-one]	4	238	47	–	–
CCN1CCN(c2cccc3c2CN([C@H](CCCN2Cc4ccccc4C2)c2ccc(OC)c(OC)c2)C3=O)CC1 [Cpd 100, 2-[(1R)-4-(1,3-dihydro-isoindol-2-yl)-1-(3,4-dimethoxy-phenyl)-butyl]-4-(4-ethyl-piperazin-1-yl)-2,3-dihydro-isoindol-1-one]	8	319	24	–	–
CCN1CCN(c2cccc3c2CN([C@H](CCCN2CCc4ccccc4C2)c2ccc(OC)c(OC)c2)C3=O)CC1 [Cpd 101, 2-[(1R)-4-(3,4-dihydro-1H-isoquinolin-2-yl)-1-(3,4-dimethoxy-phenyl)-butyl]-4-(4-ethyl-piperazin-1-yl)-2,3-dihydro-isoindol-1-one]	5	69	21	–	–
CCN1CCN(c2cccc3c2CN([C@H](CCCn2cc(C)nc2C)c2ccc(OC)c(OC)c2)C3=O)CC1 [Cpd 102, 2-[(1R)-1-(3,4-dimethoxy-phenyl)-4-(2,4-dimethyl-imidazol-1-yl)-butyl]-4-(4-ethyl-piperazin-1-yl)-2,3-dihydro-isoindol-1-one]	93	1280	> 300	–	–
CCN1CCN(c2cccc3c2CN([C@H](CCCn2ccnc2C)c2ccc(OC)c(OC)c2)C3=O)CC1 [Cpd 103, 2-[(1R)-1-(3,4-dimethoxy-phenyl)-4-(2-methyl-imidazol-1-yl)-butyl]-4-(4-ethyl-piperazin-1-yl)-2,3-dihydro-isoindol-1-one]	141	1400	158	–	–
CCN1CCN(c2cccc3c2CN([C@H](CCCn2ccnc2C(C)C)c2ccc(OC)c(OC)c2)C3=O)CC1 [Cpd 104, 2-[(1R)-1-(3,4-dimethoxy-phenyl)-4-(2-isopropyl-imidazol-1-yl)-butyl]-4-(4-ethyl-piperazin-1-yl)-2,3-dihydro-isoindol-1-one]	16	206	46	–	–
(Ac)-CFWK(2-NaI)C—NH2	–	–	–	0.54 ± 0.2	0.12 ± 0.05
